Experimental findings from ChEMBL document CHEMBL1201862, “PubChem BioAssay data set” (2004) are described below.

For orientation: AC50 means the concentration at which the activity in the assay is half-maximal. As a reminder, the CC50 is the concentration giving 50% cytotoxicity. For orientation: EC50 means the concentration needed to bring the measured effect to its halfway point. What is called GI50 is the concentration giving 50% growth inhibition.

Assay [1] can be described thus: reduction of Shn3 3'UTR-driven luciferase in osteoblasts – cell-based, Clone20 osteoblasts, firefly luciferase, cherry-picked, dose response (AID 624132).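 Note: firefly luciferase luminescence from reporter carrying the Shn3 3'UTR in osteoblasts.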 It is filed as functional.
Assay [2] can be described thus: loss of viability in HepG2 cells – cell-based, CellTiter-Glo, cherry-picked, cytotoxicity control for Shn3 inhibitor project, dose response (AID 624134). It is filed as functional. (Cellular ATP, detected with luciferase, serves as a proxy for viable cell number.)
A short description of assay [3]: non-specific 3'UTR reporter inhibition in Clone20-Shn3RL – cell-based, Renilla luciferase, cherry-picked, counter-screen for Shn3 inhibitor project, dose response (AID 624133). It is filed as functional. (The purpose of a counterscreen is to sort out artefacts and off-target activity.)
Assay [4] has as its target T1, Protein Wnt-3a (Mus musculus, UniProt P27467). Put plainly: antagonism of Wnt3a pathway luciferase reporter – Wnt-LIGHT cells, luminescence, selectivity assay for Gli-SUFU antagonist project, dose response (AID 651570).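 Note: Wnt-LIGHT reporter cells stimulated with conditioned medium from Wnt3a-producing cells.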 The following applies: read-out: IC50_Mean. In kind it is functional. In general terms: In a reporter assay the amount or activity of a reporter protein is the signal.

A short description of assay [5]: Shn3 3'UTR reporter signal decrease – cell-based, Clone20 osteoblasts, firefly luciferase, cherry-pick, set 2, Schnurri-3 inhibitor project, dose response (AID 720490).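 Note: actives lower the luminescence signal as inhibitors.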 It is filed as functional.
Assay [6] is described as follows: EF1alpha-driven Renilla reporter with control 3'UTR suppression – Clone20-Shn3RL cells, dual-Glo, cherry-pick, set 2, counter-screen for Shn3 3'UTR targeting project, dose response (AID 720724). In kind it is functional, cell-based. The following applies: Dual-Go Shn3RL.
A short description of assay [7]: HGIII-sPLA2 enzyme inhibition potency – biochemical, QFRET, IC50, dose response (AID 743457).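 Note: green fluorescence rise as the enzyme cleaves BODIPY PC-A2 in liposomes.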
Assay [8] can be described thus: viability loss in HepG2 hepatoma cells – cell-based, ATP luminescence, cherry-pick, activator set 2, cytotoxicity control, dose response (AID 1053143). It is filed as functional.
Assay [9] in a line: viability loss in THP-1 monocytes – THP-1 cells, cytotoxicity control for Vif-APOBEC3G degradation inhibitor project, dose response (AID 1117359). In kind it is functional. As to conditions: THP-1.
The nature of assay [10]: Late stage assay provider results from the probe development effort to identify inhibitors of the Plasmodium falciparum M18 Aspartyl Aminopeptidase (M18AAP): radiolabel-based cell-based dose response assay to identify compounds that inhibit P. falciparum growth in RBCs, Set 2.. It is filed as functional.
Assay [11] is described as follows: activation of miR-122 Renilla sensor silencing – cell-based, Huh7 psiCHECK-miR122, Renilla luciferase, cherry-picked, dose response (AID 651956).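 Note: huh7 hepatoma cells stably carrying a psiCHECK-2 miR-122 sensor plasmid; renilla luciferase signal reporting endogenous miR-122 activity after 48 h compound exposure.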 It is filed as functional.
Assay [12] in a line: general mammalian cell viability loss – activator set, cherry-pick, cytotoxicity control for miR-122 modulator project, dose response (AID 720690).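 Note: HEK293T human cells scored for general mammalian cytotoxicity.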 It is filed as functional, cell-based.
Assay [13] concerns the target Metabotropic glutamate receptor 5 (Rattus norvegicus, UniProt P31424). Put plainly: Identification of a glycine sulfonamide based non-MPEP site positive allosteric potentiator (PAM) of mGlu5 (calcium_assay). In kind it is functional.
Assay [14] in a line: blockers of HIV-1 envelope-mediated cell-cell fusion – cherry-pick, dose response (AID 652057). It is filed as functional, cell-based.
Assay [15] in a line: viability loss in CEM21 cells – cell-based, CellTiter-Glo luminescence, cherry-picked, cytotoxicity control for viral fusion inhibitor project, dose response (AID 652042).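 Note: potency for signal decrease meaning cytotoxicity.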 In kind it is functional.
Assay [16] in a line: blockers of HIV-1 ZM109 envelope-driven cell-cell fusion – HeLa effector, CEM target cells, luciferase, cherry-pick, dose response (AID 652058).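 Note: luciferase signal from HIV-1 Env mediated cell-cell fusion of effector and target cells.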 It is filed as functional, cell-based.
Assay [17] can be described thus: inhibition of Env-driven cell fusion – HIV entry, plate reader, dry powder, dose response (AID 687023). In kind it is functional, cell-based.
Assay [18] is described as follows: viability loss in CEM21 cells – cell-based, plate reader, dry powder, cytotoxicity control, dose response (AID 687026). In kind it is functional.
Assay [19] relates to HeLa. The experiment in a line: viability loss in HeLa cells – cell-based, ATP luminescence, cherry-pick samples, cytotoxicity control, dose response (AID 687004). In kind it is functional. As to conditions: Homo sapiens.
A short description of assay [20]: viability loss in A549 lung cells – cell-based, 24 h, CellTiter-Glo luminescence, cherry-picks, cytotoxicity control, dose response (AID 1053115). It is filed as functional. As to conditions: A549, 24 h.
Assay [21] is described as follows: P. falciparum Dd2 growth inhibitors, dose response, SYBR Green, cherry-picked samples (AID 1159567). It is filed as functional, cell-based.
A short description of assay [22]: toxicity to human hepatoma HepG2 cells – cell-based, cherry-picked samples, cytotoxicity control, dose response (AID 1159577). In kind it is functional.
The subject of the next assay is HEK293. The experiment in a line: viability loss in HEK293T cells – cell-based, ATP luminescence, cherry-pick samples, cytotoxicity control, dose response (AID 687005).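 Note: cells exposed to compound for 48 hours.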 It is filed as functional. The following applies: Homo sapiens.
Assay [23] is described as follows: HEK293 Cytotoxicity Assay Measured in Cell-Based System Using Plate Reader - 7071-01_Inhibitor_Dose_CherryPick_Activity_Set2. In kind it is functional.
A short description of assay [24]: anti-trypanosomal activity in BESM host cells – imaging, CA-I/72 strain, bovine embryo skeletal muscle, dry powder, dose response (AID 651885). In kind it is functional, cell-based.
Assay [25] can be described thus: T. cruzi growth inhibition in host cells, dose response, cell-based, plate reader, dry powder, set 2 (AID 652275). In kind it is functional.
Assay [26] addresses Muscarinic acetylcholine receptor M5 (Homo sapiens, UniProt P08912). The experiment in a line: potentiation of ACh response at human M5 – cell-based, concentration-response curve, dose response (AID 651878). It is filed as functional.
Assay [27] can be described thus: viability of BHK-21 cells – cell-based, secondary screen, cytotoxicity control for flavivirus guanylyltransferase probe project (AID 624078). In kind it is functional.
The nature of assay [28]: kidney cell line viability loss – HEK293T, luminescence plate reader, powder samples, set 4, cytotoxicity control, dose response (AID 651863). It is filed as functional, cell-based. The following applies: HEK293.
Assay [29] concerns the target T1, Protein Wnt-3a. Put plainly: SAR analysis of small molecule antagonists of Gli-SUFU in a Wnt3a luminescent reporter assay. In kind it is functional.
Assay [30] has as its system HeLa. The experiment in a line: viability loss in HeLa cells – cell-based, 24 h, cherry-picked samples, cytotoxicity control, dose response (AID 504726).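 Note: potency for cytotoxicity as loss of luminescence signal.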 In kind it is functional, Homo sapiens. As to conditions: Homo sapiens, 24 h.
Another assay relates to P388/ADR. Put plainly: cells. The following applies: Mus musculus. It is filed as functional.
A further assay has as its system SN12K1. The experiment in a line: cells. The following applies: Homo sapiens. It is filed as functional.
The next assay relates to P388. Put plainly: cells. In kind it is functional. The following applies: Mus musculus.
The target of assay [31] is T2, Small ubiquitin-related modifier 1 (Homo sapiens, UniProt P63165). The experiment in a line: SUMO1 protein interaction blockers, potency – biochemical, fluorescence polarization, uHTS hits, dose response (AID 624382). It is filed as functional. As to conditions: read-out: IC50_Mean.
T2 sequence (P63165 whole entry): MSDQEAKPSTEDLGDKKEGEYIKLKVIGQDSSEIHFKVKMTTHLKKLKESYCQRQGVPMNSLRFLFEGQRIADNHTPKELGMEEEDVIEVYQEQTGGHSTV
The target of assay [32] is T2, Small ubiquitin-related modifier 1. The experiment in a line: SUMO1 protein-protein binding blockers, potency – biochemical, FRET, dose response (AID 624383). The following applies: read-out: IC50_Mean. It is filed as functional.
Assay [33] is described as follows: viability loss in HeLa cells – cytotoxicity control for MgcRacGAP inhibitor project, dose response (AID 624300). It is filed as functional.
Assay [34] concerns the target T3, Rac GTPase-activating protein 1 (Homo sapiens, UniProt Q9H0H5).
T3 sequence (Q9H0H5 whole entry): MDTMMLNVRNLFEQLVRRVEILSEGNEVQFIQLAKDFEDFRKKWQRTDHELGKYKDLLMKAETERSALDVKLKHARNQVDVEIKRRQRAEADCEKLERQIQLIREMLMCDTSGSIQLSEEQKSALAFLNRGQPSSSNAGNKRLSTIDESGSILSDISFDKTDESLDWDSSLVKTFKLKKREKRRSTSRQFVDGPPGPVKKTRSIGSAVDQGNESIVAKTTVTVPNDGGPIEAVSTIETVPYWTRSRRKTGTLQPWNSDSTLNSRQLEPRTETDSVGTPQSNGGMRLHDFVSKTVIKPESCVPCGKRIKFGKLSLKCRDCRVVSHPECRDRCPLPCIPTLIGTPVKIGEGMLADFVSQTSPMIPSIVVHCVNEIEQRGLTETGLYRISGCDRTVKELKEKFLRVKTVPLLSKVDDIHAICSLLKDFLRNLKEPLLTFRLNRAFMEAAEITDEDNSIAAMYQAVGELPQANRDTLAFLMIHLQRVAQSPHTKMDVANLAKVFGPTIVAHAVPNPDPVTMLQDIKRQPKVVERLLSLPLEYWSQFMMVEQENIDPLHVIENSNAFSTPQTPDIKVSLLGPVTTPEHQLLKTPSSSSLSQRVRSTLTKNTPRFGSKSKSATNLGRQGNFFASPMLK
The experiment in a line: blockers of MgcRacGAP-driven Rac1 GTP hydrolysis – biochemical, ADP Hunter fluorescence, primary and confirmatory, confirmation (AID 624330). In kind it is functional.

For assay [35], the target named is DNA repair protein RAD52 homolog (Homo sapiens, UniProt P43351). In kind it is functional, biochemical.
Chain of DNA repair protein RAD52 homolog (P43351 whole entry): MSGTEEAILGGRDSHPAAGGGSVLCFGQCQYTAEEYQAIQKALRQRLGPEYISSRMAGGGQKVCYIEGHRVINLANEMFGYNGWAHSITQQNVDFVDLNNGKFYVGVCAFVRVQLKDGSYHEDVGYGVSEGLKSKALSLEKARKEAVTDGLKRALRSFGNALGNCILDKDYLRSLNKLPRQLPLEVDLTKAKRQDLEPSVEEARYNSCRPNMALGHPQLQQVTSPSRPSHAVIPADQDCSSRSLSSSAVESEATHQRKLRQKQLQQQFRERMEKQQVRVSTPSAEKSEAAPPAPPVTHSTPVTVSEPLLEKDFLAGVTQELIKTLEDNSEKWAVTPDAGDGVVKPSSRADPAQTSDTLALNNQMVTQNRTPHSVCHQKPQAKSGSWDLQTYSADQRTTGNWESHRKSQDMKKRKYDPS

Active and inactive are the calls of the source.

T1 sequence (P27467 whole entry): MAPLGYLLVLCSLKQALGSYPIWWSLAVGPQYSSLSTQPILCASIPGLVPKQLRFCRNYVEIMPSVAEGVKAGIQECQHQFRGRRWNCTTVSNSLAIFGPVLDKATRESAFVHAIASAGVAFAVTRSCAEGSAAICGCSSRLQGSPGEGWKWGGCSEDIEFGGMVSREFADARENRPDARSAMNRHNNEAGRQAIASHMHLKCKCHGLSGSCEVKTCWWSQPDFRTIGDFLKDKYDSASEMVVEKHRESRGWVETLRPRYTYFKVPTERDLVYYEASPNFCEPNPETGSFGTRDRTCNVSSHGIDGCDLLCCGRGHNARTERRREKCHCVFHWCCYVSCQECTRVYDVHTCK
Chain of Muscarinic acetylcholine receptor M5 (P08912 whole entry): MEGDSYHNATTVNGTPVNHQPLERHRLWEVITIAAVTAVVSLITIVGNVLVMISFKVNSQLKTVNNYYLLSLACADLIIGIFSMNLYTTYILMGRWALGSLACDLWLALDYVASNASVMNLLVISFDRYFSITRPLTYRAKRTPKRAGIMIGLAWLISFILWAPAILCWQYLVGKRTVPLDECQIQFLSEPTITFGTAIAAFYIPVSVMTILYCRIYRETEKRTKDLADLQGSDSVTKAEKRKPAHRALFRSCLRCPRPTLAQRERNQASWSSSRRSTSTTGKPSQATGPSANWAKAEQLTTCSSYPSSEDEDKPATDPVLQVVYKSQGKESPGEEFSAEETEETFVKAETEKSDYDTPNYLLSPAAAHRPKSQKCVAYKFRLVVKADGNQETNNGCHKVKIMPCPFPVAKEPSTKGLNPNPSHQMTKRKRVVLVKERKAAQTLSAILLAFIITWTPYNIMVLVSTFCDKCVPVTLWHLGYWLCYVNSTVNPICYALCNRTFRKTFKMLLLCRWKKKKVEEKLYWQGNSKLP
Chain of Metabotropic glutamate receptor 5 (P31424 whole entry, the tested form may be a part): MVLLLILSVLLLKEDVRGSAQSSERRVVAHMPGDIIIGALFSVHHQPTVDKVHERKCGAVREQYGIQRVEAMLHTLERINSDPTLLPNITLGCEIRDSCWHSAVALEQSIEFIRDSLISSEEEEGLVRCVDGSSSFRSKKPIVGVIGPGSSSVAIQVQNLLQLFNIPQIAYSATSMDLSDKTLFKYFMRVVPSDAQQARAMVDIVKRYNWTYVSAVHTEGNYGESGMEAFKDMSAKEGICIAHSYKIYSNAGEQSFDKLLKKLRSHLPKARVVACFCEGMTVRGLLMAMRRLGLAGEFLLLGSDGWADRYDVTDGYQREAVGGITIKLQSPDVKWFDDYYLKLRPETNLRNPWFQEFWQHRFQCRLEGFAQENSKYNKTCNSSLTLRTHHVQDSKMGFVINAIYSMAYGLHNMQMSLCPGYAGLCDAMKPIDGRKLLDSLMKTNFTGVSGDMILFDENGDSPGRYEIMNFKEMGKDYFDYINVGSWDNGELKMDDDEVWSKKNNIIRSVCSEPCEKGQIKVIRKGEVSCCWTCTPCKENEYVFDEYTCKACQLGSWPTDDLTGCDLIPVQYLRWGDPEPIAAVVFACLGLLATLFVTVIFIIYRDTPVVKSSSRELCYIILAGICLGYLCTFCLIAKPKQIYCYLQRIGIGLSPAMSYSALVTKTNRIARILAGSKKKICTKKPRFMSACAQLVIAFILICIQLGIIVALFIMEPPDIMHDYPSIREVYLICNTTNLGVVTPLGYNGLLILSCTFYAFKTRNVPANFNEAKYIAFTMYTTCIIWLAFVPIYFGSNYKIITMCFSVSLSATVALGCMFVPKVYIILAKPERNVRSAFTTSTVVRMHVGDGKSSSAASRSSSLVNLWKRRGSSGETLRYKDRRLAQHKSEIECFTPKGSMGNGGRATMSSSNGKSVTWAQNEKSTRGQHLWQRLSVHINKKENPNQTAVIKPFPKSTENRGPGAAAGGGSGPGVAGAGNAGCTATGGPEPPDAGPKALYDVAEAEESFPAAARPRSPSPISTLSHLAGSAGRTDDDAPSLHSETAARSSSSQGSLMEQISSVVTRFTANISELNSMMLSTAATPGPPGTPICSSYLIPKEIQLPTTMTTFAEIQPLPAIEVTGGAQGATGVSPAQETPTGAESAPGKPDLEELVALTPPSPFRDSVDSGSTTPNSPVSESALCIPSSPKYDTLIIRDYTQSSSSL

Consider `O=C(Cn1cnc2ccccc21)Nc1cccc(S(=O)(=O)N2CCCC2)c1`, for which the AC50 in [1] was 2.77 µM (active); in [2], 50.5 µM (active); in [3] it was 10.1 µM (active); in assay [5], 2.61 µM (active); in assay [6] it was 1.79 µM (active). On Protein Wnt-3a [4], the IC50 is 13.1 µM (active).
In the case of `O=C(NNC(=S)Nc1ccc(Br)cc1Cl)c1ccco1`, the IC50 in assay [7] is > 122 µM (inactive).
For `O=C(NCC1CC1)c1ccc2c3n(nc2c1)-c1ccccc1CO3`, the AC50 in assay [8] was 26 µM (active). The CC50 in [9] is > 40 µM (active).
As for `COc1ccc(CCNc2c3ccccc3nc3ccccc23)cc1OC`, the IC50 in assay [10] is 2.4 µM (active).
On to `COc1ccc(C#Cc2ccc([C@H]3[C@H](CO)N4CCCCN(C(=O)Nc5ccccc5)C[C@@H]34)cc2)cc1`, for which the figures for the AC50 in assay [11] and in assay [12] were 6 µM (active) and 10 µM (active), respectively.
Regarding `CS(=O)(=O)N(CC(=O)NCC1CC1)c1cc(C(F)(F)F)ccc1Cl`, the EC50 in [13] worked out at 0.298 µM.
Regarding `COc1cccc(S(=O)(=O)Nc2ccc3c(c2)[C@H]2C[C@H](CC(=O)NCc4ccc(Cl)cc4)O[C@@H](CO)[C@H]2O3)c1`, the AC50 is 9.17 µM (active) in [14]; 67 µM (active) in assay [15]; 1.29 µM (active) in assay [16]; 19.4 µM (active) in assay [17]; > 70 µM (inactive) in assay [18].
On to `COc1ccccc1CN1CC[C@H]2[C@H](CO)Nc3ccc(C#Cc4ccccc4)cc3[C@H]21`, for which the AC50 was 10.2 µM (active) in the assay with HeLa [19], > 60 µM (inactive) in assay [20], 1.45 µM (active) in assay [21] and 11.4 µM (active) in [22].
`COc1ccc(C#Cc2ccc3c(c2)O[C@@H](CN(C)C(C)=O)[C@@H](C)CN([C@H](C)CO)S3(=O)=O)cc1`: the AC50 in the assay with HeLa [19] is > 52 µM (inactive); with HEK293, 17.8 µM (active); in assay [23] it was 17.8 µM (active).
Regarding `CC(C)N1C[C@H](C)[C@@H](CN(C)C(=O)OC(C)(C)C)Oc2c(C(=O)Nc3ccncc3)cccc2C1=O`, in assay [24], the IC50 is > 20 µM (inactive).
With `CC(C)N1C[C@H](C)[C@@H](CN(C)Cc2ccc(Oc3ccccc3)cc2)Oc2c(cccc2-c2nnc(-c3ccncc3)o2)C1=O`, in [25], the AC50 is 0.116 µM (active).
As to `O=C1C(=O)N(CCOc2ccc(Br)cc2)c2ccc(OC(F)(F)F)cc21`, in [26], the EC50 was 1.45 µM (active).
As to `Cc1cc(C)c(S(=O)(=O)Nc2cc(SCC(=O)O)c(O)c3ccccc23)c(C)c1`, in assay [27], the CC50 was 9.03 µM (active).
In the case of `CC(C)OC(=O)C(C(=O)C(F)(F)F)c1cc(NS(=O)(=O)c2ccccc2)c2ccccc2c1O` (stereo not given), in assay [28], the half-maximal activity concentration (AC50) was 40.4 µM (active).
`CCN(CC)c1cc(NC(=O)c2cccc(C#N)c2)ncn1`: on Protein Wnt-3a [29], the IC50 is > 21.8 µM (inactive).
Consider `COc1ccc2[nH]c3c(C)c4cc[n+](C)cc4c(C)c3c2c1`, for which the AC50 is 65.2 µM (active) in the assay with HeLa [30] and < 0.15 µM (active) in assay [35]. The values for the GI50 with P388/ADR, in the assay on SN12K1 and with P388 were 55.8 µM (inactive), 0.203 µM (active) and 0.773 µM (active), respectively. Besides, the IC50 in assay [31] is > 66.6 µM (inactive); in assay [32] it was 9.55 µM (active); in assay [34] it was 24.7 µM (active). For the same molecule, the CC50 in [33] is 100 µM (active).
